Results published in US6489340B1, “Macrolide compounds for inducing chondrogenic differentiation” (Fujisawa Pharmaceutical., Ltd., priority 1999, dated 2002).

Test system: ATDC5 cells
Assay: Induction of chondrogenic differentiation of ATDC5 cells (Alcian blue staining, proteoglycan amount)
Type: cell-based
Settings: ATDC5 cells incubated 24 days; Alcian blue dye measured at 620 nm; FK506 1-1000 ng/ml
Description: The inducing activity by FK506 Substance on chondrogenic differentiation was evaluated in accordance with the below-mentioned method. (1) The ATDC5 cell line provided by RIKEN Cell Bank (Tsukuba, Japan) was grown in a 1:1 mixture of Dulbecco's modified Eagle's medium and Ham's F12 medium (Nikken Biomedical Laboratory, Kyoto, Japan) supplemented with 10 % heat-inactivated fetal bovine serum (Intergen, Purchase, N.Y.). […] (2) The above ATDC5 cells were plated in 12-multiwell plastic plate at a density of 1×10^5 cells/well in the medium. After 4 hr, the medium was replaced with fresh medium containing FK506 or Cyclosporin A (CsA), and the culture was continued for a 24 days with medium change every 2 or 3 days. Cells were fixed with methanol and stained 0.1% Alcian blue (Sigma Chemical Co., St. Louis, Mo.) dissolved in 0.1 M hydrochloric acid for 16 hr at room temperature. Cells were then rinsed three times with distilled water, and the amount of cell-associated dye was measured at 620 nm after extraction with 6 M guanidine-HCl (300 μl/well). ATDC5 cells were incubated with FK506 or CsA for 24 days and the amount of proteoglycan was assayed.

Compound	inducing activity on chondrogenic differentiation (differentiation into chondrocyte; amount of proteoglycan)
Cyclosporin A [CsA]	did not induce the differentiation
C=CC[C@@H]1/C=C(\C)C[C@H](C)C[C@H](OC)[C@H]2O[C@@](O)(C(=O)C(=O)N3CCCC[C@H]3C(=O)O[C@H](/C(C)=C/[C@@H]3CC[C@@H](O)[C@H](OC)C3)[C@H](C)[C@@H](O)CC1=O)[C@H](C)C[C@@H]2OC [FK506, 17-allyl-1,14-dihydroxy-12-[2-(4-hydroxy-3-methoxycyclohexyl) -1-methylvinyl]-23,25-dimethoxy-13,19,21,27-tetramethyl-11, 28-dioxa-4-azatricyclo [22.3.1.0^4,9]octacos-18-ene-2,3,10,16-tetraone]	induced differentiation into chondrocyte in a concentration-dependent manner
